Where two headings read alike, the source gives them in different places.
Test system: U937 leukemia cancer cell line
Test: Cell viability (phototoxicity) WST-1 assay with and without UV light;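 further: WST-1 absorbance at 480 and 600 nm after 2 h compound preincubation, 20 min UV irradiation (peak 365 nm) or none, then 24 h recovery at 37 °C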
Conditions: for IC50: Homo sapiens, U-937, 20 min; for cell viability with increasing concentration of compound, light exposure: 20 minutes light exposure; for activity under the photolytic conditions (in words): UV-A/UV-B light
[1] = read-out: VC50/20, U937 cells, 20 minutes UV light exposure

Method: The compounds were dissolved in DMSO (8 mM) and diluted with the cell culture media such that the amount of the DMSO exposed to the cells remained below 0.5% (64 mM). After light exposure, cell viability is assessed using a WST-1 (4-[3-(4-Iodophenyl)-2-(4-nitrophenyI)-2H-5-tetrazolio]-1, 3-benzene disulfonate) cell proliferation assay (Roche Diagnostics, NJ, USA). At the end of 22 hours, WST-1 is added to each well of plate. After 2 hours of incubation, the metabolic activity is quantified by absorbance measurements at 480nm and 600nm using a Synergy 4 plate reader (BioTEK Instruments, VT, USA). The number of viable cells is determined and percent viability is determined:
Viability measurements are analyzed to provide VC50/20 values which is defined as the concentration at which 50% decrease in cell viability is observed when the cells are exposed to light and the photosensitizes for 20 minutes.
Photoxicity of diarylamines were tested for their photo-toxicity in U937 cells (ATCC,VA) a monocytic leukemia cell line. Cells were cultured, harvested and counted with trypan blue exclusion method to ensure 95% viability. The cells were then plated at a density of 20,000 cells/well in flat bottom 96 well plates and incubated overnight. On the following day, dilutions of the compounds to be screened were prepared in complete RPMI media and added to cells followed by a 2-hour incubation. After the preincubation time, the cells were irradiated for 20 minutes with 100 W UV lamp (Model B-100A, UVP, Upland, Calif.) with peak output at 365 nm and a bandwidth of about 50 nm. The light source was not optimized for each compound with respect to power and wavelength. The total power near the surface of the microtiter plate is about 8 mW. The temperature at the surface of the microtiter plates were kept below 37° C. with external air cooling. After light exposure, cells were allowed to recover at 37° C. in a CO2 incubator for 24 h, and thereafter the viability was assessed using a WST-1 (4-[3-(4-Iodophenyl)-2-(4-nitrophenyl)-2H-5-tetrazolio]-1,3-benzene disulfonate) cell proliferation assay (Roche Diagnostics, NJ, USA). At the end of 22 hours, WST-1 was added to each well of plate. After 2 hours of incubation, the metabolic activity was quantified by absorbance measurements at 480 nm and 600 nm using a Synergy 4 plate reader (BioTEK Instruments, VT, USA). The percent viability was calculated as [OD value of treated cells/mean OD value of control cells]×100%). The percent cell viability assay values were then plotted in Graph Pad Prism (Graph Pad Software Inc, La Jolla, Calif.) and VC50/20 values for each compound was obtained using nonlinear regression analysis of the log inhibitor versus response in a 4 parameter curve fit. Each compound was tested for minimum of n=3. The corresponding control conditions for the cell viability assays were: (a) DMSO only (no photosensitizer), no light; (b) DMSO only (no photosensitizer) light; and (c) photosensitizer, no light (dark toxicity).
A general procedure is carried out for measuring cell viability upon exposure of U937 leukemia cells to a number of diarylamino photosensitizers of the invention and light. U937 cells are harvested and counted with trypan blue exclusion method to ensure viability. The cells are then plated at a density of 20,000 cells/well in flat bottom 96 well plates and incubated overnight. On the following day, dilutions of the compounds to be screened are prepared in complete RPMI media and added to cells followed by a 2 hour incubation. After the preincubation time, cells are exposed to UV light for various times and then allowed to recover at 37° C. in a CO2 incubator for 24 h.
The cell viability analysis is carried out using a human myeloid leukemia U937 cell line by the standard WST-1 assay.

SMILES: c1ccc2c(c1)Nc1ccccc1O2 [(FX11), Phenoxazine]
- IC50 (read-out: VC50/20): 14.5 ± 1.54 µM
- cell viability with increasing concentration of compound, light exposure (U937 cells): substantial decrease in cell viability
- activity under the photolytic conditions (in words) (U937 cells): weakly active

SMILES: c1ccc(Nc2ccccc2)cc1 [(FX20), Diphenylamine]
- activity under the photolytic conditions (in words) (U937 cells): inactive

SMILES: c1ccc2c(c1)Nc1ccccc1S2 [(FX10), phenothiazine]
- IC50 (read-out: VC50/20): 1.39 ± 0.11 µM
- IC50 [1]: ~1.39 µM
- cell viability with increasing concentration of compound, light exposure (U937 cells): substantial decrease in cell viability
- activity under the photolytic conditions (in words) (U937 cells): highly active

SMILES: CN1c2ccccc2Cc2ccccc21 [(FX19), N-methylacridan]
- activity under the photolytic conditions (in words) (U937 cells): decreased the activity

SMILES: c1ccc(C2c3ccccc3Nc3ccccc32)cc1 [(FX7)]
- activity under the photolytic conditions (in words) (U937 cells): less active

SMILES: c1ccc2c(c1)Cc1ccccc1N2 [(FX9), acridan]
- IC50 (read-out: VC50/20): 0.68 ± 0.11 µM
- IC50 [1]: 0.68 µM
- cell viability with increasing concentration of compound, light exposure (U937 cells): substantial decrease in cell viability
- activity under the photolytic conditions (in words) (U937 cells): very potent
- cell viability with increasing concentration of compound, no light exposure (dark toxicity) (U937 cells, no light exposure): no substantial decrease in cell viability

SMILES: c1ccc(C2c3ccccc3Nc3ccccc32)cc1 [(FX17), 9-phenylacridan]
- IC50 (read-out: VC50/20): 0.17 ± 0.01 µM
- IC50 [1]: 0.17 µM
- cell viability with increasing concentration of compound, light exposure (U937 cells): substantial decrease in cell viability
- activity under the photolytic conditions (in words) (U937 cells): most potent

SMILES: c1ccc2c(c1)[nH]c1ccccc12 [(FX3), carbazole]
- IC50 (read-out: VC50/20): 5.56 ± 1.15 µM
- IC50 [1]: ~5 µM
- cell viability with increasing concentration of compound, light exposure (U937 cells): substantial decrease in cell viability
- activity under the photolytic conditions (in words) (U937 cells): moderately active

SMILES: C1=Cc2ccccc2Nc2ccccc21 [(FX8), 5H-Dibenz[b,f]azepine]
- IC50 (read-out: VC50/20): 2.58 ± 1.14 µM
- IC50 [1]: ~2.58 µM
- cell viability with increasing concentration of compound, light exposure (U937 cells): substantial decrease in cell viability
- activity under the photolytic conditions (in words) (U937 cells): very active

Reference: patent publication US20120289884A1, “Fused Ring Diarylamino Photosensitizers for Phototherapy” (Mallinckrodt LLC, priority 2011, published 2012)
